Results from patent US20210087206A1, “MACROCYCLIC KINASE INHIBITORS AND THEIR USE” (TURNING POINT THERAPEUTICS, INC., priority 2017, published 2021).

Columns and labels:
Test in all cases: Cell proliferation assay (CellTiter-Glo)
Assay type in all cases: cell-based
[1] = molecular target: T1, BaF3 EML4-ALK (Homo sapiens, UniProt Q9UM73); settings: anti-cell proliferation, 72 hours
T1 construct: The EML4-ALK gene (variant 1) was synthesized at GenScript and cloned into pCDH-CMV-MCS-EF1-Puro plasmid (System Biosciences, Inc); fused on or other part: EML4 N-terminal part (variant 1: exons 1-13, with the coiled-coil that oligomerises the fusion) fused to the intracellular part of ALK, which contains the kinase domain; Q9HC35 (Echinoderm microtubule-associated protein-like 4)
Method: Cloning and Ba/F3 or NIH3T3 Stable Cell Line Creation
The EML4-ALK gene (variant 1) was synthesized at GenScript and cloned into pCDH-CMV-MCS-EF1-Puro plasmid (System Biosciences, Inc). Ba/F3-EML4-ALK wild type were generated by transducing Ba/F3 cells with lentivirus containing EML4-ALK wide type. Stable cell lines were selected by puromycin treatment, followed by IL-3 withdrawal. Briefly, 5×10^6 Ba/F3 cells were transduced with lentivirus supernatant in the presence of 8 μg/mL protamine sulfate. The transduced cells were subsequently selected with 1 μg/mL puromycin in the presence of IL3-containing medium RPMI1640, plus 10% FBS. After 10-12 days of selection, the surviving cells were further selected for IL3 independent growth.
(§1) Cell Proliferation Assays:
(§2) Two thousand cells per well were seeded in 384 well white plate for 24 hrs, and then treated with compounds for 72 hours (37° C., 5% CO2). Cell proliferation was measured using CellTiter-Glo luciferase-based ATP detection assay (Promega) following the manufactures's protocol. IC50 determinations were performed using GraphPad Prism software (GraphPad, Inc., San Diego, Calif.).

[2] = test system: KG-1 cell (OP2-FGFR1); settings: Homo sapiens, anti-cell proliferation, 72 hours
Method: (§3) Cell Lines and Cell Culture:
(§4) Colorectal cell line KM 12 (harboring endogenous TPM3-TRKA fusion gene) was obtained from NCI. Acute myelogenous cell line KG-1 (harboring endogenous OP2-FGFR1 fusion gene) were purchased from ATCC.
as §1, §2

[3] = test system: KM12 (TPM3-TRKA); settings: Homo sapiens, anti-cell proliferation, 72 hours
Method: as §3, §4, §1, §2

T1 sequence (Q9UM73 whole entry, stated change not applied, the tested form may be a part): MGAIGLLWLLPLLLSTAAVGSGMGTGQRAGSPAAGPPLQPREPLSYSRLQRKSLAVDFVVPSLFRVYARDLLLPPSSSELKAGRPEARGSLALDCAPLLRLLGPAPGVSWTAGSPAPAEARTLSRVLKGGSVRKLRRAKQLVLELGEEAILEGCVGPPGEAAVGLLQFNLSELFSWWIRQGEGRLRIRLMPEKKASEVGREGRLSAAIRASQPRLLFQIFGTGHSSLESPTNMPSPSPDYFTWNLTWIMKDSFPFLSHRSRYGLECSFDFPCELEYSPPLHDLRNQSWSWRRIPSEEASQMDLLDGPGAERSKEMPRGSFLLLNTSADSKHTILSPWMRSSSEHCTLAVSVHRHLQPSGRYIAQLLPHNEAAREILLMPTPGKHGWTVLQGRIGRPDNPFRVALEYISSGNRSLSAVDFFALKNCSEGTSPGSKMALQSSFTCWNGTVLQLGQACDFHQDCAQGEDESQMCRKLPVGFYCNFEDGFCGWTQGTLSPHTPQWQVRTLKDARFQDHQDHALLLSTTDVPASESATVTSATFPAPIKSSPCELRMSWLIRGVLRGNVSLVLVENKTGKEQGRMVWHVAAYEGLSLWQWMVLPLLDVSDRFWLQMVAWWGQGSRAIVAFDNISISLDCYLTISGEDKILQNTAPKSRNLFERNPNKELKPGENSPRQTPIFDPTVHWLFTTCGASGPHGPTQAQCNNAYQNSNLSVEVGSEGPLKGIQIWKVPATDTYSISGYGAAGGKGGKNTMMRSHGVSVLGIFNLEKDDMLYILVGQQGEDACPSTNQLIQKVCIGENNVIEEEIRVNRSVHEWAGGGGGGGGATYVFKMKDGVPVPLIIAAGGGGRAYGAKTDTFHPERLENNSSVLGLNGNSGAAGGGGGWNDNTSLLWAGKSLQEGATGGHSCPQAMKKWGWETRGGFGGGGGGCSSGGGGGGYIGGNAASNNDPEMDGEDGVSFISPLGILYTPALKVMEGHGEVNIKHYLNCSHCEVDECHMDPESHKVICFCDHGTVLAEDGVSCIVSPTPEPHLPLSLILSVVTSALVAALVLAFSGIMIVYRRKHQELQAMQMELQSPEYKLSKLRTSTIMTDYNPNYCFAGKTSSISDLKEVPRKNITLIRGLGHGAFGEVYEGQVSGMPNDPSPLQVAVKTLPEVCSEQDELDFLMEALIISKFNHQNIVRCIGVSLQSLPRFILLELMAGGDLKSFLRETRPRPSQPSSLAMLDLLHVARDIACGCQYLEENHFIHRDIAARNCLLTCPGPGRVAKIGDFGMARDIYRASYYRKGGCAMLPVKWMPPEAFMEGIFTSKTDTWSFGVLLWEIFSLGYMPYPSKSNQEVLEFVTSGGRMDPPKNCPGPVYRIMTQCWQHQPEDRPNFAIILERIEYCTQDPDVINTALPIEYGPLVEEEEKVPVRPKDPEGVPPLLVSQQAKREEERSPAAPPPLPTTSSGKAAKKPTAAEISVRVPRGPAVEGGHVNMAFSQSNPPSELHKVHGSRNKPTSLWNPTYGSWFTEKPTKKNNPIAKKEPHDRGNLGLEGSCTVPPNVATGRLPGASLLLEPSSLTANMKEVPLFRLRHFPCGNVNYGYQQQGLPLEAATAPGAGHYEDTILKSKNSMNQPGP

C[C@@H]1COc2cn3ncc4c3nc2N1Cc1cc(F)cnc1O[C@@H](C)CCNC4=O [Compound 36, (8S,16R)-12-fluoro-8,16-dimethyl-5,6,7,8,16,17-hexahydro-4H,14H-1,19-(metheno)[1,4]oxazino[4,3-e]pyrazolo[3,4-h]pyrido[2,3-b] [1,5,7,11]oxatriazacyclotetra-decin-4-one]
IC50 [1]: 60.9 nM
IC50 [2]: 25.3 nM
IC50 [3]: < 0.2 nM

C[C@@H]1COc2cn3ncc4c3nc2N1Cc1cc(F)cnc1OC[C@H](F)CNC4=O [Compound 80, (7R,16R)-7,12-difluoro-16-methyl-5,6,7,8,16,17-hexahydro-4H,14H-1,19-(metheno)[1,4]-oxazino[4,3-e]pyrazolo[3,4-h]pyrido[2,3-b][1,5,7,11]oxa-triazacyclotetradecin-4-one]
IC50 [1]: 134 nM
IC50 [2]: 44.4 nM
IC50 [3]: < 0.2 nM

C[C@H]1CNC(=O)c2cnn3cc4c(nc23)N(Cc2cc(F)cnc2OC1)[C@H](C)CO4 [Compound 35, (7S,16R)-12-fluoro-7,16-dimethyl-5,6,7,8,16,17-hexahydro-4H,14H-1,19-(metheno)[1,4]oxazino[4,3-e]pyrazolo[3,4-h]pyrido[2,3-b] [1,5,7,11]oxatriazacyclotetra-decin-4-one]
IC50 [1]: 48.2 nM
IC50 [2]: 33.5 nM
IC50 [3]: < 0.2 nM

C[C@@H]1COc2cn3ncc4c3nc2N1Cc1cc(F)cnc1OCC1(CC1)CNC4=O [Compound 67, (16′R)-12′-fluoro-16′-methyl-4′H,5′H,6′H,8′H,14′H,16′H,17′H-spiro[cyclopropane-1,7′-[9,18]-dioxa[1,2,5,10,15,20]hexaaza-[1,19](metheno)[1,4]oxazino[4,3-e]pyrazolo[3,4-h]pyrido[2,3-b] [1,5,7,11]oxatriazacyclotetradecin]-4′-one]
IC50 [1]: 32.4 nM
IC50 [2]: 8.8 nM
IC50 [3]: < 0.2 nM

C[C@@H]1COc2cn3ncc4c3nc2N1Cc1cc(F)ccc1OCCNC4=O [Compound 3, (4R,12S)-8-fluoro-4,12-dimethyl-3,4,13,14-tetrahydro-6H-18,1-(metheno)[1,4]oxazino[3,4-i]-pyrazolo[4,3-f][1,4,8,10]benzo-xatriazacyclotridecin-15(12H)-one]
IC50 [1]: 94.2 nM
IC50 [2]: 271 nM
IC50 [3]: 0.2 nM

C[C@@H]1COc2cn3ncc4c3nc2N1Cc1cc(F)cnc1OCC1(CCC1)NC4=O [Compound 45, (4′R)-8′-fluoro-4′-methyl-3′H,4′H,6′H,12′H,14′H,15′H-spiro[cyclobutane-1,13′-[2,11]-dioxa[5,10,14,17,18,19]hexaaza-[18,1](metheno)[1,4]oxazino[3,4-i]pyrazolo[4,3-f]pyrido[3,2-l] [1,4,8,10]oxatriazacyclotridecin]-15′-one]
IC50 [1]: 2.7 nM
IC50 [2]: 5 nM
IC50 [3]: < 0.2 nM

C[C@@H]1COc2cn3ncc4c3nc2N1Cc1cc(F)cnc1OCC1(CCCC1)NC4=O [Compound 52, (4'R)-8'-fluoro-4'-methyl-3'H,4'H,6'H,12'H,14'H,15'H-spiro[cyclopentane-1,13'-[2,11]-dioxa[5,10,14,17,18,19]hexaaza-[18,1](metheno)[1,4]oxazino[3,4-i]pyrazolo[4,3-f]pyrido[3,2-l] [1,4,8,10]oxatriazacyclotridecin]-15’-one]
IC50 [1]: 276 nM
IC50 [2]: 359 nM
IC50 [3]: < 0.2 nM

C=C1COc2cn3ncc4c3nc2N1Cc1cc(F)cnc1OC[C@@H](C)NC4=O [Compound 42, (13R)-8-fluoro-13-methyl-4-methylidene-3,4,13,14-tetrahydro-6H-18,1-(metheno)[1,4]oxazino[3,4-i]pyrazolo[4,3-f]pyrido[3,2-1][1,4,8,10]oxatriazacyclotridecin-15(12H)-one]
IC50 [1]: 1200 nM
IC50 [2]: 1230 nM
IC50 [3]: < 0.2 nM

C[C@@H]1COc2cn3ncc4c3nc2N1Cc1cc(F)cnc1OCC[C@H](C)NC4=O [Compound 48, (6S,16R)-12-fluoro-6,16-dimethyl-5,6,7,8,16,17-hexahydro-4H,14H-1,19-(metheno)[1,4]oxazino[4,3-e]pyrazolo[3,4-h]pyrido[2,3-b] [1,5,7,11]oxatriazacyclotetra-decin-4-one]
IC50 [1]: 22.1 nM
IC50 [2]: 12.9 nM
IC50 [3]: < 0.2 nM

CC[C@@H]1COc2cn3ncc4c3nc2N1Cc1cc(F)cnc1OCC(C)(C)CNC4=O [Compound 76, (16R)-16-ethyl-12-fluoro-7,7-dimethyl-5,6,7,8,16,17-hexahydro-4H,14H-1,19-(metheno)[1,4]-oxazino[4,3-e]pyrazolo[3,4-h]-pyrido[2,3-b][1,5,7,11]oxatriaza-cyclotetradecin-4-one]
IC50 [1]: 35.3 nM
IC50 [2]: 0.8 nM
IC50 [3]: < 0.2 nM

C[C@@H]1COc2cn3ncc4c3nc2N1Cc1cc(F)cnc1O[C@H]1CCC[C@H]1NC4=O [Compound 49, (8R,15aS,18aR)-12-fluoro-8-methyl-7,8,15a,16,17,18,18a, 19-octahydro-10H,20H-3,5-(metheno)cyclopenta[b][1,4]-oxazino[3,4-i]pyrazolo[4,3-f]-pyrido[3,2-l][1,4,8,10]-oxatriazacyclotridecin-20-one]
IC50 [1]: 55.1 nM
IC50 [2]: 9.5 nM
IC50 [3]: < 0.2 nM

C[C@@H]1COc2ncc(F)cc2CN2c3nc4c(cnn4cc3OC[C@H]2C#N)C(=O)N1 [Compound 66, (4R,13R)-8-fluoro-13-methyl-15-oxo-3,4,12,13,14,15-hexahydro-6H-18,1-(metheno)[1,4]oxazino[3,4-i]pyrazolo[4,3-f]pyrido[3,2-1][1,4,8,10]oxatriazacyclotridecine-4-carbonitrile]
IC50 [2]: 10000 nM
IC50 [3]: 463 nM

C[C@@H]1COc2ncc(F)cc2CN2c3nc4c(cnn4cc3OC[C@H]2Cc2ccccc2)C(=O)N1 [Compound 39, (4R,13R)-4-benzyl-8-fluoro-13-methyl-3,4,13,14-tetrahydro-6H-18,1-(metheno)[1,4]oxazino[3,4-i]pyrazolo[4,3-f]pyrido[3,2-l] [1,4,8,10]oxatriazacyclotridecin-15(12H)-one]
IC50 [1]: 1610 nM
IC50 [2]: 73.7 nM

CC[C@@H]1COc2ncc(F)cc2CN2c3nc4c(cnn4cc3OC[C@H]2C)C(=O)N1 [Compound 24, (4R,13R)-13-ethyl-8-fluoro-4-methyl-3,4,13,14-tetrahydro-6H-18,1-(metheno)[1,4]oxazino[3,4-i]pyrazolo[4,3-f]pyrido[3,2-l] [1,4,8,10]oxatriazacyclotridecin-15(12H)-one]
IC50 [1]: 104 nM
IC50 [2]: 50 nM

C[C@@H]1COc2cn3ncc4c3nc2N1Cc1cc(F)cnc1OCC(O)(O)CNC4=O [Compound 81, (16R)-12-fluoro-7,7-dihydroxy-16-methyl-5,6,7,8,16,17-hexahydro-4H,14H-1,19-(metheno)[1,4]oxazino[4,3-e]pyrazolo[3,4-h]pyrido[2,3-b][1,5,7,11]oxatriazacyclotetradecin-4-one]
IC50 [2]: 166 nM
IC50 [3]: < 0.2 nM

C[C@@H]1COc2ncc(F)cc2CN2C[C@@H](F)COc3cn4ncc(c4nc32)C(=O)N1 [Compound 94, (4R,14R)-4,9-difluoro-14-methyl-4,5,14,15-tetrahydro-3H,7H-19,1-(metheno)[1,4]oxazepino[3,4-i]pyrazolo[4,3-f]pyrido[3,2-l] [1,4,8,10]oxatriazacyclotridecin-16(13H)-one]
IC50 [2]: 6110 nM
IC50 [3]: 40.3 nM

C[C@H]1CNC(=O)c2cnn3cc4c(nc23)N(Cc2cc(F)cnc2O1)C[C@@H](O)CO4 [Compound 90, (4R,13S)-9-fluoro-4-hydroxy-13-methyl-4,5,14,15-tetrahydro-3H,7H-19,1-(metheno)[1,4]-oxazepino[3,4-i]pyrazolo[4,3-f]pyrido[3,2-l][1,4,8,10]oxatriaza-cyclotridecin-16(13H)-one]
IC50 [2]: 359 nM
IC50 [3]: < 0.2 nM

C[C@H]1CNC(=O)c2cnn3cc4c(nc23)N(Cc2cc(F)cnc2O1)[C@H](Cc1ccccc1)CO4 [Compound 38, (4R,12S)-4-benzyl-8-fluoro-12-methyl-3,4,13,14-tetrahydro-6H-18,1-(metheno)[1,4]oxazino[3,4-i]pyrazolo[4,3-f]pyrido[3,2-l] [1,4,8,10]oxatriazacyclotridecin-15(12H)-one]
IC50 [1]: 7240 nM
IC50 [2]: 357 nM

C[C@H]1CNC(=O)c2cnn3cc4c(nc23)N(Cc2cc(F)cnc2O1)C(C)(C)CO4 [Compound 37, (12S)-8-fluoro-4,4,12-trimethyl-3,4,13,14-tetrahydro-6H-18,1-(metheno)[1,4]oxazino[3,4-i]-pyrazolo[4,3-f]pyrido[3,2-l] [1,4,8,10]oxatriazacyclotridecin-15(12H)-one]
IC50 [1]: 1550 nM
IC50 [2]: 5000 nM

C[C@H]1CNC(=O)c2cnn3cc4c(nc23)N(Cc2cc(F)cnc2O1)C[C@H](O)CO4 [Compound 62, (4S,13S)-9-fluoro-4-hydroxy-13-methyl-4,5,14,15-tetrahydro-3H,7H-19,1-(metheno)[1,4]-oxazepino[3,4-i]pyrazolo[4,3-f]-pyrido[3,2-l][1,4,8,10]oxatria-cyclotridecin-16(13H)-one]
IC50 [2]: 681 nM
IC50 [3]: 94.8 nM
